For test [1], the system named is neurons from Cln7 knock out (KO) mice. Kind of test: In vitro model of Batten disease, glycolytic flux. The format is cell-based, mouse. As to conditions: 10 nM, 24 hours. The method, then:
Primary cultures of C57BL/6J WT and Cln7Δex2 mice cortical neurons were prepared from fetal animals of 14.5 days of gestation, seeded at 1.8·10^5 cells/cm2 in plastic plates coated with poly-D-lysine […] and incubated in Neurobasal (Life Technologies) supplemented with 2 mM glutamine, 5 mM of glucose, 0.25 mM pyruvate and 2% B27 supplement (Life Technologies). Cells were incubated at 37° C. in a humidified 5% CO2-containing atmosphere. At 72 hours after plating, medium was replaced using Neurobasal (Life Technologies) supplemented with 2 mM glutamine, 5 mM glucose, 0.25 mM pyruvate and 2% B27 supplement (Life Technologies) minus antioxidants (MAO; i.e., lacking vitamin E, vitamin E acetate, superoxide dismutase, catalase, and glutathione). Six days after the plating medium was replaced again. Cells were used at day 9.
Glycolytic flux was measured in 8 cm2 flasks of adherent cells at 60-70% confluence containing a central microcentrifuge tube with 1 ml H2O for 3H2O equilibration. […]. […] Glycolytic flux was measured by assaying the rate of 3H2O production from [3-3H]glucose by incubating cells with 5μ Ci D-[3-3H]glucose in KRPG buffer per flask for 120 min, as previously described [Vicente-Gutierrez, C. et al. Astrocytic mitochondrial ROS modulate brain metabolism and mouse behavior. […] The 3H2O was then measured by liquid scintillation counting (Tri-Carb 4810 TR, PerkinElmer). […]

Test [2] deals with mouse primary cortical neurons. Kind of test: Mitochondrial ROS (MitoSox) upon excitotoxic stimuli. The format is cell-based. As to conditions: NMDA and glutamate excitotoxic models; inhibitor 0.01 μM. As for the experimental part:
To directly test the ability of the PFKFB3 inhibitor, AZ67 and Compound 1, to protect against the damage caused by excitotoxic stimuli, mouse primary cortical neurons were subjected to a short-term exposure to NMDA or glutamate (100 μM for 10 minutes), a well-known excitotoxic stimuli (Almeida and Bolahos, 2001). For NMDAR activation, neurons at 8 days in vitro were incubated with 100 μM glutamate (plus 10 μM glycine) or 100 μM NMDA (plus 10 μM glycine) for 10 minutes. Neurons were then washed and further incubated in culture medium with the PFKFB3 inhibitors for 24 hours. A colorimetric NADP/NADPH assay kit (Abcam) was used. Cells were resuspended in 500 μl of NADP/NADPH extraction buffer, vortexed and centrifuged at 14,000 rpm for 5 minutes to remove insoluble material. The supernatant was used for NADPH +plus NADP+ measurement. NADPH was determined in 200 μl of the supernatant, after heatinged […] 60° C. for 30 minutes to decompose NADP+. Actual NADP and NADPH+ concentrations were calculated by extrapolating values to a NADPH standard curve (0-100 pmol/well).
Mitochondrial ROS was detected using the fluorescent probe MitoSox™ (Life Technologies). […] MitoSox™ fluorescence was assessed by flow cytometry and expressed in arbitrary units.

“Also recorded” adds a separate entry of the source.

This note sets out measurements from US20230047816A1 (priority 2018, published 2023).

On to `Cc1noc(C)c1Cn1cc(C#N)c2cc(Oc3ccc(NC(=O)[C@@H]4CCCN4)cc3)ccc21` [AZ67, (2S)-N-[4-({3-cyano-1-[(3,5-dimethyl-1,2-oxazol-4-yl)methyl]-1H-indol-5-yl}oxy)phenyl]pyrrolidine-2-carboxamide], for which, in test [1], the “rate of glycolysis (glycolytic flux)” value is “reduce the excessive glycolysis to normal levels”. Besides, the “increase in mitochondrial ROS” value in test [2] was “significantly prevented the increase in mitochondrial ROS; also recorded: prevent mitochondrial ROS increase”.
